Literature values in patent US20180214382A1, “EDIBLE COMPOSITION COMPRISING A POLYSACCHARIDE AND A LIPID” (PERORA GMBH, priority 2015, published 2018).

Details: rat feeding study; independent from intake

true digestibility of stearic acid from tristearin: 0.15 g/g
SMILES: CCCCCCCCCCCCCCCCCC(=O)OCC(COC(=O)CCCCCCCCCCCCCCCCC)OC(=O)CCCCCCCCCCCCCCCCC [tristearin]
